Source: patent publication US6322532A, “Sonophoresis method and apparatus” (3M Innovative Properties Company, priority 1999, dated 2001)

Experiment: Franz diffusion cell permeation of salicylic acid across cadaver skin with/without flexure mode sonophoresis transducer
Parameters: species or system human
Protocol: A similar experiment to that described in Example 1 was carried out using salicylic acid. […] About 20 ml donor solution (ppb) with excess (beyond solubility levels) of salicylic acid was added to the upper portion of the Franz cells atop the cadaver skin.

## O=C(O)c1ccccc1O [salicylic acid]
Active cells, about 2 W/cm^2, about 27 kHz, about 200 V (rms), continuous duty cycle, about 7 cm^2 cadaver skin, first few hours
  average sonophoretic drug flux: about 700 micrograms/cm^2 /hr
Four passive cells, no sonophoresis transducer, 2 cm^2 cadaver skin, 10 ml receptor fluid, 5 hr experiment
  average passive drug flux: about 200 micrograms/cm^2 /hr
